Data reported in the supplement of paper PMC5908809.

How the values were obtained:
[1] = test system: normal NK cells expanded with K562-aAPC; experiment: drug sensitivity score (DSS) (DSS units); higher = more sensitive; extreme values may be limits of the assay; settings: 72 h; IL-2 2.5 ng/mL
Method: (§1)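 Drug sensitivity and resistance testing on K562-aAPC-expanded normal NK cells: 5 concentrations (10-fold steps over a 10,000-fold range), 72 h at 37 °C, viability by CellTiter-Glo normalised to DMSO and benzethonium chloride controls; DSS from the fitted curve.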

[2] = test system: normal primary NK cells, pool 1 (3 donors) (IL-2 2.5 ng/mL); experiment: percent inhibition of viability; higher = more inhibition; settings: 72 h
[3] = test system: normal primary NK cells, pool 3 (3 donors) (IL-2 2.5 ng/mL); experiment: as above; settings: 72 h
YT (IL-2 2.5 ng/mL) [4] = experiment: as above; settings: 72 h
[5] = test system: normal primary NK cells, pool 1 (3 donors), resting (IL-2 0 ng/mL); experiment: as above; settings: 72 h
NKL (IL-2 2.5 ng/mL) [6] = experiment: as above; settings: 72 h
IMC-1 (IL-2 20 ng/mL) [7] = experiment: as above; settings: 72 h
DERL-7 (IL-2 2.5 ng/mL) [8] = experiment: as above; settings: 72 h
NK-YS (IL-2 2.5 ng/mL) [9] = experiment: as above; settings: 72 h
KAI3 (IL-2 2.5 ng/mL) [10] = experiment: as above; settings: 72 h
NK-92 (IL-2 2.5 ng/mL) [11] = experiment: as above; settings: 72 h
KHYG-1 (IL-2 2.5 ng/mL) [12] = experiment: as above; settings: 72 h
[13] = test system: normal primary NK cells, pool 2 (3 donors) (IL-2 2.5 ng/mL); experiment: as above; settings: 72 h
SNK-6 (IL-2 2.5 ng/mL) [14] = experiment: as above; settings: 72 h
[15] = test system: normal primary NK cells, pool 1 (3 donors) (IL-2 2.5 ng/mL); experiment: drug sensitivity score (DSS) (DSS units); higher = more sensitive; extreme values may be limits of the assay; settings: 72 h
[16] = test system: normal primary NK cells, pool 3 (3 donors) (IL-2 2.5 ng/mL); experiment: as above; settings: 72 h
YT (IL-2 2.5 ng/mL) [17] = experiment: as above; settings: 72 h
[18] = test system: normal primary NK cells, pool 1 (3 donors), resting (IL-2 0 ng/mL); experiment: as above; settings: 72 h
NKL (IL-2 2.5 ng/mL) [19] = experiment: as above; settings: 72 h
IMC-1 (IL-2 20 ng/mL) [20] = experiment: as above; settings: 72 h
DERL-7 (IL-2 2.5 ng/mL) [21] = experiment: as above; settings: 72 h
NK-YS (IL-2 2.5 ng/mL) [22] = experiment: as above; settings: 72 h
KAI3 (IL-2 2.5 ng/mL) [23] = experiment: as above; settings: 72 h
NK-92 (IL-2 2.5 ng/mL) [24] = experiment: as above; settings: 72 h
KHYG-1 (IL-2 2.5 ng/mL) [25] = experiment: as above; settings: 72 h
[26] = test system: normal primary NK cells, pool 2 (3 donors) (IL-2 2.5 ng/mL); experiment: as above; settings: 72 h
SNK-6 (IL-2 2.5 ng/mL) [27] = experiment: as above; settings: 72 h
[28] = test system: normal NK cells expanded with K562-aAPC; experiment: percent inhibition of viability; higher = more inhibition; settings: 72 h, IL-2 2.5 ng/mL
Method: as §1

CC(C)Oc1cc(Nc2nc(N[C@@H](C)c3ccc(F)cn3)ncc2Cl)n[nH]1 [AZ-23] (max concentration tested 1000 nM)
Settings	drug sensitivity score
DERL-7 (IL-2 2.5 ng/mL) [21]	0.51
IMC-1 (IL-2 20 ng/mL) [20]	0
KAI3 (IL-2 2.5 ng/mL) [23]	2.21
KHYG-1 (IL-2 2.5 ng/mL) [25]	0.25
NK-92 (IL-2 2.5 ng/mL) [24]	0
NK-YS (IL-2 2.5 ng/mL) [22]	0.85
NKL (IL-2 2.5 ng/mL) [19]	4.11
SNK-6 (IL-2 2.5 ng/mL) [27]	3.55
YT (IL-2 2.5 ng/mL) [17]	0.01
[1]	2.75
[15]	0
[16]	0
[18]	0
[26]	7.86

percent inhibition of viability [%]
Settings	0.1 nM	1 nM	10 nM	100 nM	1000 nM
DERL-7 (IL-2 2.5 ng/mL) [8]	-2.19	-3.08	4.42	0.42	18.3
IMC-1 (IL-2 20 ng/mL) [7]	1.36	2.7	8	5.82	6.35
KAI3 (IL-2 2.5 ng/mL) [10]	0.26	-1.15	7.26	4.08	33.3
KHYG-1 (IL-2 2.5 ng/mL) [12]	-3.32	3.62	8.53	3.55	16.2
NK-92 (IL-2 2.5 ng/mL) [11]	-8.37	-0.57	6.98	-18.1	-10.1
NK-YS (IL-2 2.5 ng/mL) [9]	-4.76	0.81	3.08	0.21	23.1
NKL (IL-2 2.5 ng/mL) [6]	-5.13	-8.13	11.5	13	49.2
SNK-6 (IL-2 2.5 ng/mL) [14]	-7.56	5.32	3.77	17.8	36.8
YT (IL-2 2.5 ng/mL) [4]	-1.34	0.79	6.32	-2.16	11.8
[2]	-2.92	-1.19	-3.79	-5.46	7.88
[3]	-9.03	-10.1	-13.7	0.83	6.87
[5]	-13.2	-3.44	-0.59	-21.9	-26.6
[13]	-2.37	-3.09	-7.97	98.9	20
[28]	2.78	-2.04	0.04	9.24	31.4

O=C(O)CC[C@H]1CC[C@@](c2cc(F)ccc2F)(S(=O)(=O)c2ccc(Cl)cc2)CC1 [MK-0752] (max concentration tested 1000 nM)
Settings	drug sensitivity score
DERL-7 (IL-2 2.5 ng/mL) [21]	0
IMC-1 (IL-2 20 ng/mL) [20]	0
KAI3 (IL-2 2.5 ng/mL) [23]	0
KHYG-1 (IL-2 2.5 ng/mL) [25]	0
NK-92 (IL-2 2.5 ng/mL) [24]	0
NK-YS (IL-2 2.5 ng/mL) [22]	0.08
NKL (IL-2 2.5 ng/mL) [19]	0
SNK-6 (IL-2 2.5 ng/mL) [27]	1.21
YT (IL-2 2.5 ng/mL) [17]	0
[1]	1.1
[15]	0
[16]	0
[18]	0
[26]	0

percent inhibition of viability [%]
Settings	0.1 nM	1 nM	10 nM	100 nM	1000 nM
DERL-7 (IL-2 2.5 ng/mL) [8]	-0.82	-1.19	-2.01	-1.84	0.38
IMC-1 (IL-2 20 ng/mL) [7]	-1.19	-1.62	3.7	1.88	9.87
KAI3 (IL-2 2.5 ng/mL) [10]	-5.58	-3.61	-11.2	-10.3	10.8
KHYG-1 (IL-2 2.5 ng/mL) [12]	2.68	-1.92	2.12	-1.77	2.96
NK-92 (IL-2 2.5 ng/mL) [11]	-10.8	-16	2.19	-18.6	9.52
NK-YS (IL-2 2.5 ng/mL) [9]	1.77	3.33	4.23	-0.52	12.9
NKL (IL-2 2.5 ng/mL) [6]	-5.92	-6.47	1.23	0.27	-0.85
SNK-6 (IL-2 2.5 ng/mL) [14]	-1.33	10	0.79	21.6	11.5
YT (IL-2 2.5 ng/mL) [4]	-5.65	-0.71	-6.38	-14.1	8.32
[2]	1.14	-1.74	-0.83	-10.7	3.87
[3]	-11.6	-7.52	0.99	-5.48	3.93
[5]	-1.4	-17	-8.36	-13.1	-7.22
[13]	-9.74	-4.15	-0.03	-3.82	-3.17
[28]	-3.97	0.91	0.33	10.8	16.2
